From the supplement of paper PMC8612539
Converted amounts (≈) assume the structure as drawn.

Tested on: Pasteurella multocida
Test: minimum inhibitory concentration (MIC)
Procedure: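 Broth microdilution MIC (Sensititre BOPO7F bovine plate, CLSI methods) of 19 antimicrobials against field isolates of P. multocida, M. haemolytica, H. somni (deep nasopharyngeal swabs) and E. coli, Enterococcus spp. (rectal swabs) from weaned dairy heifers. Incubation 16-24 h at 35 C. MIC is the lowest concentration preventing visible growth. Values with <= or > lie at the tested range limits. Trimethoprim-sulfamethoxazole is given as the trimethoprim component of a 1:19 mixture.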

CN1C[C@@H]2C[C@H]1CN2c1cc2c(cc1F)c(=O)c(C(=O)O)cn2C1CC1 [Danofloxacin]
Settings | minimum inhibitory concentration [µg/mL]
isolate (source animal id): 10 | > 1
isolate (source animal id): 11 | 1 (≈ 2.8 µM)
isolate (source animal id): 12 | > 1
isolate (source animal id): 19 | > 1
isolate (source animal id): 23 | 1 (≈ 2.8 µM)
isolate (source animal id): 26 | > 1
isolate (source animal id): 98 | > 1
isolate (source animal id): 104 | 1 (≈ 2.8 µM)
isolate (source animal id): 115 | ≤ 0.12
isolate (source animal id): 117 | > 1
isolate (source animal id): 118 | > 1
isolate (source animal id): 121 | ≤ 0.12
isolate (source animal id): 124 | > 1
isolate (source animal id): 125 | > 1
isolate (source animal id): 128 | ≤ 0.12
isolate (source animal id): 131 | > 1
isolate (source animal id): 135 | > 1
isolate (source animal id): 136 | ≤ 0.12
isolate (source animal id): 140 | > 1
isolate (source animal id): 144 | 1 (≈ 2.8 µM)
isolate (source animal id): 146 | 1 (≈ 2.8 µM)
isolate (source animal id): 150 | ≤ 0.12
isolate (source animal id): 151 | ≤ 0.12
isolate (source animal id): 153 | 1 (≈ 2.8 µM)
isolate (source animal id): 155 | > 1
isolate (source animal id): 157 | > 1
isolate (source animal id): 160 | ≤ 0.12
isolate (source animal id): 164 | ≤ 0.12
isolate (source animal id): 165 | ≤ 0.12
isolate (source animal id): 167 | ≤ 0.12
isolate (source animal id): 168 | > 1
isolate (source animal id): 169 | ≤ 0.12
isolate (source animal id): 170 | ≤ 0.12
isolate (source animal id): 171 | ≤ 0.12
isolate (source animal id): 172 | ≤ 0.12
isolate (source animal id): 173 | > 1
isolate (source animal id): 174 | ≤ 0.12
isolate (source animal id): 175 | ≤ 0.12
isolate (source animal id): 176 | ≤ 0.12
isolate (source animal id): 177 | ≤ 0.12
isolate (source animal id): 178 | ≤ 0.12
isolate (source animal id): 179 | ≤ 0.12
isolate (source animal id): 182 | ≤ 0.12
isolate (source animal id): 192 | ≤ 0.12
isolate (source animal id): 193 | ≤ 0.12
isolate (source animal id): 195 | ≤ 0.12
isolate (source animal id): 196 | ≤ 0.12
isolate (source animal id): 197 | ≤ 0.12
isolate (source animal id): 198 | > 1
isolate (source animal id): 199 | ≤ 0.12
isolate (source animal id): 200 | ≤ 0.12
isolate (source animal id): 201 | ≤ 0.12
isolate (source animal id): 203 | ≤ 0.12
isolate (source animal id): 204 | ≤ 0.12
isolate (source animal id): 205 | > 1
isolate (source animal id): 206 | ≤ 0.12
isolate (source animal id): 207 | ≤ 0.12
isolate (source animal id): 208 | ≤ 0.12
isolate (source animal id): 209 | ≤ 0.12
isolate (source animal id): 210 | > 1
isolate (source animal id): 213 | ≤ 0.12
isolate (source animal id): 216 | ≤ 0.12
isolate (source animal id): 223 | > 1
isolate (source animal id): 227 | ≤ 0.12
isolate (source animal id): 229 | > 1
isolate (source animal id): 233 | > 1
isolate (source animal id): 234 | > 1
isolate (source animal id): 237 | > 1
isolate (source animal id): 241 | > 1
isolate (source animal id): 245 | > 1
isolate (source animal id): 247 | 1 (≈ 2.8 µM)
isolate (source animal id): 250 | > 1
isolate (source animal id): 254 | > 1
isolate (source animal id): 255 | > 1
isolate (source animal id): 258 | ≤ 0.12
isolate (source animal id): 261 | > 1
isolate (source animal id): 262 | > 1
isolate (source animal id): 269 | 0.25 (≈ 0.7 µM)
isolate (source animal id): 270 | > 1
isolate (source animal id): 274 | > 1
isolate (source animal id): 275 | > 1
isolate (source animal id): 276 | > 1
isolate (source animal id): 277 | 0.25 (≈ 0.7 µM)
isolate (source animal id): 278 | > 1
isolate (source animal id): 279 | 1 (≈ 2.8 µM)
isolate (source animal id): 280 | > 1
isolate (source animal id): 284 | > 1
isolate (source animal id): 285 | > 1
isolate (source animal id): 287 | > 1
isolate (source animal id): 290 | ≤ 0.12
isolate (source animal id): 294 | ≤ 0.12
isolate (source animal id): 295 | ≤ 0.12
isolate (source animal id): 296 | > 1
isolate (source animal id): 307 | ≤ 0.12
isolate (source animal id): 310 | ≤ 0.12
isolate (source animal id): 311 | ≤ 0.12
isolate (source animal id): 312 | > 1
isolate (source animal id): 313 | > 1
isolate (source animal id): 315 | > 1
isolate (source animal id): 316 | > 1
